Reference: patent US20240058392A1, “COMPOSITION COMPRISING SEA CUCUMBER GENITAL GLAND EXTRACT, COMPOUND DERIVED FROM SEA CUCUMBER OVARY EXTRACT, AND USE THEREOF” (BIOINFORMATICS & MOLECULAR DESIGN RESEARCH CENTER, priority 2020, published 2024)
Read-outs that look alike come from different tables or passages of the source.

Columns and labels:
[1] = system: 3T3-L1 cells; test: Glucose Uptake-Glo Assay, saponin compounds; assay type: cell-based; conditions: Mus musculus, read-out: Fold Relative to Control (glucose uptake)
Procedure: The 3T3-L1 cells were cultured in a high glucose DMEM medium in which 10% Calf serum and penicillin-streptomycin were added, and subcultured per 2-3 days. […] After 2 days, it was replaced with a medium containing insulin, and the medium was replaced again per 2 days to induce differentiation.
For the differentiation-completed 3T3-L1 cells, starvation was conducted for 16 hours, and then a sea cucumber-derived single compound was treated in a serum-free medium at a concentration of 2.5 ug/mL for 6 hours. The cultured supernatant was recovered and for the 3T3-L1 cells, using Glucose Uptake-Glo Assay Kit, the glucose transport activity degree was measured using a luminometer.

[2] = system: FAS, PPARγ, C/EBPα, and FABP4; test: Expression of adipogenesis-related proteins in 3T3-L1 cells treated with single compounds; assay type: cell-based
Procedure: In order to investigate the effect on expression of the adipocytes differentiation-related proteins by the sea cucumber extract, expression of the related proteins was confirmed through western blot. The differentiation-completed 3T3-L1 cells were washed with PBS, and then lysis was conducted with RIPA buffer, and then the proteins were separated by molecular weight through SDS-PAGE. After that, it was transferred to a PVDF membrane and it was blocked using 5% skim milk for 30 minutes. Then, it was reacted with a primary antibody, and then a secondary antibody was attached to confirm protein expression using an ECL solution.
In order to figure out the mechanism of the fat accumulation inhibitory efficacy of the single compound examined above, the degree of expression of proteins of FAS, PPARγ, C/EBPα, and FABP4, which were adipogenesis-related proteins was confirmed.

[3] = system: 3T3-L1 cells; test: 3T3-L1 cell viability of single compounds separated from sea cucumber ovary extract; conditions: single compounds 2.5-5 μg/ml
[4] = system: 3T3-L1 cells; test: Oil red O staining, single compounds of sea cucumber ovary extract; assay type: cell-based
Procedure: The differentiation-completed 3T3-L1 cells were fixed with 4% formaldehyde for 1 hour, and then fats were stained using a 0.5% Oil red O staining solution to confirm the degree of differentiation. For quantitative analysis of adipose differentiation, the dye stained in the cells was dissolved with 100% isopropyl alcohol and the absorbance was measured at 500 nm.
In order to investigate the effect on adipose differentiation of the 3T3-L1 cells of the single compound in the sea cucumber ovary extract, a total 8 of compounds were treated with a differentiation medium at a concentration of 2.5 and 5 μg/ml for 48 hours.

[5] = system: 3T3-L1 cells
[6] = differentiated 3T3-L1 cells, compound 2.5 ug/mL, 6 hours, serum-free medium
[7] = 1 μg/ml, compared to the control group

Compound | fold induction at 2.5 µg/mL [1, 6] | expression of adipogenesis-related proteins FAS, PPARγ, C/EBPα, and FABP4 [2] | fold induction at 2.5 µg/mL ([1]; 3T3-L1, 6 h) | further results
C=C(C)CCC[C@](C)(O)[C@@H]1[C@@H]2CC3(C)C4=CCC5C(C)(C)[C@@H](O[C@@H]6OCC(O[C@@H]7OC(CO)C(O)[C@H](O)C7O)[C@H](O)C6O[C@@H]6OC(CO)C(O[C@@H]7OC(CO)C(O)[C@H](O[C@@H]8OC(CO)C(O)[C@H](O)C8O)C7O)[C@H](O)C6O)CC[C@]5(C)C4CCC13C(=O)O2 (stereo partly shown) [S1] | 1.25 |  |  | 
C=C(C)CCC[C@](C)(O)[C@@H]1[C@@H]2CC3(C)C4=CCC5C(C)(C)[C@@H](O[C@@H]6OCC(O[C@@H]7OC(CO)C(O)[C@H](O)C7O)[C@H](O)C6O[C@@H]6OC(C)C(O[C@@H]7OC(CO)C(O)[C@H](O[C@@H]8OC(CO)C(O)[C@H](O)C8O)C7O)[C@H](O)C6O)CC[C@]5(C)C4CCC13C(=O)O2 (stereo partly shown) [S2] | 1.43 |  |  | expression of adipogenesis-related proteins FAS, PPARγ, C/EBPα, and FABP4 ([2]; compared to the control, concentration not given): a significant difference in protein expression was not shown
C=C(C)CCC[C@](C)(O)[C@@H]1[C@@H]2CC3(C)C4=CCC5C(C)(C)[C@@H](O[C@@H]6OCC(O[C@@H]7OC(CO)C(O)[C@H](O)C7O)[C@H](O)C6O[C@@H]6OC(C)C(O[C@@H]7OC(CO)C(O)[C@H](O[C@@H]8OC(CO)C(O)[C@H](OC)C8O)C7O)[C@H](O)C6O)CC[C@]5(C)C4CCC13C(=O)O2 (stereo partly shown) [S3] | 1.1 |  |  | change of 3T3-L1 cell viability [3]: a significant decrease was shown; expression of adipogenesis-related proteins FAS, PPARγ, C/EBPα, and FABP4 [2, 7]: definitely reduced; expression of adipogenesis-related proteins FAS, PPARγ, C/EBPα, and FABP4 ([2]; from 2.5 μg/ml): expression of the related proteins was definitely reduced; inhibition at 1 µg/mL ([4]; Mus musculus, 3T3-L1, 1 μg/ml (lowest of the series from 1 μg/ml to 5 μg/ml), read-out: inhibition of fat accumulation): ~16%; inhibition at 5 µg/mL ([4]; Mus musculus, 3T3-L1, 5 μg/ml (highest of the series from 1 μg/ml to 5 μg/ml), read-out: inhibition of fat accumulation): ~80%; inhibition of fat accumulation ([4]; middle concentration of the series from 1 μg/ml to 5 μg/ml (2.5 μg/ml by the method)): ~40%
C=C(C)CCC[C@@]1(C)OC(=O)C23CC=C4C(CCC5C(C)(C)[C@@H](O[C@@H]6OCC(O[C@@H]7OC(CO)C(O)[C@H](O[C@@H]8OC(CO)C(O)[C@H](OC)C8O)C7O)[C@H](O)C6O[C@@H]6OC(CO)C(O[C@@H]7OC(CO)C(O)[C@H](O[C@@H]8OC(CO)C(O)[C@H](O)C8O)C7O)[C@H](O)C6O)CC[C@]45C)C2(C)CC(=O)C31 (stereo partly shown) [S4] | 1.6 |  |  | change of 3T3-L1 cell viability [3]: a significant decrease was shown; expression of adipogenesis-related proteins FAS, PPARγ, C/EBPα, and FABP4 [2, 7]: definitely reduced; expression of adipogenesis-related proteins FAS, PPARγ, C/EBPα, and FABP4 ([2]; from 2.5 μg/ml): expression of the related proteins was definitely reduced
C=C(C)CCC[C@@]1(C)OC(=O)C23CC=C4C(CCC5C(C)(C)[C@@H](O[C@@H]6OCC(O[C@@H]7OC(CO)C(O)[C@H](O[C@@H]8OC(CO)C(O)[C@H](O)C8O)C7O)[C@H](O)C6O[C@@H]6OC(CO)C(O[C@@H]7OCC(O)[C@H](O[C@@H]8OC(CO)C(O)[C@H](OC)C8O)C7O)[C@H](O)C6O)CC[C@]45C)C2(C)CC(=O)C31 (stereo partly shown) [S5, holotoxin D1] |  | expression of the related proteins was definitely reduced | 1.38 | change of 3T3-L1 cell viability [5]: a significant decrease was shown
C=C(C)CCC[C@@]1(C)OC(=O)C23CC=C4C(CCC5C(C)(C)[C@@H](O[C@@H]6OCC(O[C@@H]7OC(CO)C(O)[C@H](O[C@@H]8OC(CO)C(O)[C@H](O)C8O)C7O)[C@H](O)C6O[C@@H]6OC(C)C(O[C@@H]7OC(CO)C(O)[C@H](O[C@@H]8OC(CO)C(O)[C@H](OC)C8O)C7O)[C@H](O)C6O)CC[C@]45C)C2(C)CC(=O)C31 (stereo partly shown) [S6, holotoxin B] |  | a definite decrease in protein expression | 1.24 | 
C=C(C)CCC[C@@]1(C)OC(=O)C23CC=C4C(CCC5C(C)(C)[C@@H](O[C@@H]6OCC(O[C@@H]7OC(CO)C(O)[C@H](O[C@@H]8OC(CO)C(O)[C@H](OC)C8O)C7O)[C@H](O)C6O[C@@H]6OC(C)C(O[C@@H]7OC(CO)C(O)[C@H](O[C@@H]8OC(CO)C(O)[C@H](OC)C8O)C7O)[C@H](O)C6O)CC[C@]45C)C2(C)CC(=O)C31 (stereo partly shown) [S8, holotoxin A] |  | a definite decrease in protein expression | 1.43 | 
C=C(C)CCC[C@](C)(O)[C@@H]1[C@@H]2CC3(C)C4=CCC5C(C)(C)[C@@H](O[C@@H]6OCC(O[C@@H]7OC(CO)C(O)[C@H](O)C7O)[C@H](O)C6O[C@@H]6OC(C)C(O[C@@H]7OC(CO)C(O)[C@H](O)C7O)[C@H](O)C6O)CC[C@]5(C)C4CCC13C(=O)O2 (stereo partly shown) [S9] | 1.03 |  |  | 
